Tests used:
[1] = system: S. pneumoniae D39V; assay: fitness (endpoint OD595 vs no drug) (fraction); higher = more growth
In short: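 In 384-well plates at 37 °C, cultures began at OD595 0.01 in 30 µl, with 55 µl used for S. pneumoniae. OD595 readings every 30 min for 14 h were corrected by the first reading. Fitness divides the stationary-phase transition optical density by the robust mean of no-drug control wells. The result is capped at 1.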

[2] = system: B. subtilis 168; assay: Bliss interaction score (quartile over a dose matrix) (fitness difference); higher = more antagonism (negative = synergy)
In short: (§1)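 Quartiles summarise the Bliss score over technical, biological and donor/recipient replicates, where the score is observed minus expected fitness under a product model. Expected fitness uses single-drug values inferred from combination data. Fitness is OD595 at entry into stationary phase over the plate's robust no-drug mean, capped at 1.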

[3] = system: S. aureus DSM 20231; assay: as above
In short: as §1

[4] = system: S. aureus Newman; assay: as above
In short: as §1

[5] = system: S. pneumoniae D39V; assay: as above
In short: as §1
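Throughout, for Bliss interaction score (quartile over a dose matrix): first quartile when negative (synergy) and third quartile when positive (antagonism).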

COc1c(N2C[C@@H]3CCCN[C@@H]3C2)c(F)cc2c(=O)c(C(=O)O)cn(C3CC3)c12 [Moxifloxacin] + O=C1CN(/N=C/c2ccc([N+](=O)[O-])o2)C(=O)N1 [Nitrofurantoin]
fitness, [1]
Settings	first compound 0.0037 µg/mL	first compound 0.005 µg/mL	first compound 0.0075 µg/mL	first compound 0.01 µg/mL	first compound 0.015 µg/mL	first compound 0.02 µg/mL
partner 1.285 µg/mL	0.969	–	0.914	–	0.884	–
partner 2 µg/mL	–	0.972	–	0.961	–	0.893
partner 2.57 µg/mL	0.906	–	0.903	–	0.912	–
partner 4 µg/mL	–	0.949	–	0.949	–	0.879
partner 8 µg/mL	–	0.836	–	0.872	–	0.81

[1], partner 5.14 µg/mL, one replicate
Settings	fitness
first compound 0.0037 µg/mL	0.797
first compound 0.0075 µg/mL	0.748
first compound 0.015 µg/mL	0.78

Settings	Bliss interaction score
[2]	0.0132
[3]	0.0448
[4]	-0.0496
[5]	0.0837

O=C1CN(/N=C/c2ccc([N+](=O)[O-])o2)C(=O)N1 [Nitrofurantoin] + CC1=C\[C@@H](O)CC(=O)Cc2nc(co2)C(=O)N2CCC=C2C(=O)O[C@H](C(C)C)[C@H](C)/C=C/C(=O)NC\C=C\1 [Virginiamycin M1]
fitness, [1]
Settings	first compound 1.285 µg/mL	first compound 2 µg/mL	first compound 2.57 µg/mL	first compound 4 µg/mL	first compound 8 µg/mL
partner 0.5 µg/mL	0.99	–	0.955	–	–
partner 1 µg/mL	0.98	–	0.962	–	–
partner 2 µg/mL	0.972	0.867	0.949	0.879	0.872

fitness, [1], one replicate
Settings	partner 0.15 µg/mL	partner 0.3 µg/mL	partner 0.5 µg/mL	partner 1 µg/mL	partner 2 µg/mL
first compound 2 µg/mL	0.911	0.875	0.99	0.988	–
first compound 4 µg/mL	0.914	0.886	0.967	0.957	–
first compound 5.14 µg/mL	–	–	0.917	0.972	≥ 1
first compound 8 µg/mL	0.888	0.897	0.918	0.855	–

Settings	Bliss interaction score
[2]	0.129
[3]	0.0559
[4]	0.0574
[5]	0.084

O=C1CN(/N=C/c2ccc([N+](=O)[O-])o2)C(=O)N1 [Nitrofurantoin] + CCN(CC)CCOC(=O)c1ccc(N)cc1 [Procaine]
fitness, [1]
Settings	partner 85.5 µg/mL	partner 171 µg/mL	partner 342 µg/mL
first compound 1.285 µg/mL	0.994	0.987	0.994
first compound 2.57 µg/mL	0.972	0.964	0.934

fitness, [1], one replicate
Settings	first compound 2 µg/mL	first compound 4 µg/mL	first compound 5.14 µg/mL	first compound 8 µg/mL
partner 85.5 µg/mL	0.964	0.951	0.921	0.858
partner 171 µg/mL	≥ 1	0.979	0.943	0.908
partner 342 µg/mL	0.914	0.879	0.918	0.837

Settings	Bliss interaction score
[2]	0.106
[3]	0.0706
[4]	0.0593
[5]	0.0619

O=C1CN(/N=C/c2ccc([N+](=O)[O-])o2)C(=O)N1 [Nitrofurantoin] + CN1C2=CC=CC=C2N=C3C1=CC=CC3=O [Pyocyanin]
fitness, [1]
Settings	partner 0.325 µg/mL	partner 0.65 µg/mL	partner 1.3 µg/mL
first compound 1.285 µg/mL	0.979	0.919	0.634
first compound 2.57 µg/mL	0.94	0.796	0.444

fitness, [1], one replicate
Settings	first compound 2 µg/mL	first compound 4 µg/mL	first compound 5.14 µg/mL	first compound 8 µg/mL
partner 0.325 µg/mL	≥ 1	≥ 1	0.798	0.738
partner 0.65 µg/mL	≥ 1	0.982	0.637	0.814
partner 1.3 µg/mL	–	–	0.332	–

Settings	Bliss interaction score
[2]	0.0805
[3]	-0.0533
[4]	-0.0575
[5]	-0.199

O=C1CN(/N=C/c2ccc([N+](=O)[O-])o2)C(=O)N1 [Nitrofurantoin] + CN(C)c1cc(NC(=O)CNC(C)(C)C)c(O)c2c1C[C@H]1C[C@H]3[C@H](N(C)C)C(O)=C(C(N)=O)C(=O)[C@@]3(O)C(O)=C1C2=O [Tigecycline]
fitness, [1]
Settings	first compound 1.285 µg/mL	first compound 2 µg/mL	first compound 2.57 µg/mL	first compound 4 µg/mL	first compound 8 µg/mL
partner 0.65 µg/mL	0.939	0.96	0.932	0.971	0.921
partner 1.3 µg/mL	0.957	0.958	0.957	0.941	0.881
partner 2.6 µg/mL	0.949	0.919	0.936	0.937	0.9

[1], first compound 5.14 µg/mL, one replicate
Settings	fitness
partner 0.65 µg/mL	0.922
partner 1.3 µg/mL	0.92
partner 2.6 µg/mL	0.894

Settings	Bliss interaction score
[2]	0.178
[3]	0.0547
[4]	0.0708
[5]	0.0879

From the supplement of paper PMC10627819
